The values that follow are results of earlier work, collected in patent publication US20260335397A1, “TREATMENT OF GEOGRAPHIC ATROPHY” (Apellis Pharmaceuticals, Inc., priority 2022, published 2026).

Each structure is given as a SMILES string. Where a SMILES comes first, the peptide text is derived from it. Bridges are numbered along the chain shown (N, C = ends). [ ]: non-standard residue; d: D form. Abu = CC[C@H](N)C(=O)O

The test system of this data set is complement activation. As to conditions: relative to compstatin (C-terminally amidated); published data; cited from earlier work.

In the case of `CC[C@H](C)[C@H](NC(C)=O)C(=O)N[C@H]1CSSC[C@@H](C(=O)N[C@H](C(N)=O)[C@@H](C)O)NC(=O)[C@H](CCCNC(=N)N)NC(=O)[C@H](Cc2c[nH]cn2)NC(=O)[C@H](C)NC(=O)CNC(=O)[C@H](Cc2c[nH]c3ccccc23)NC(=O)[C@H](CC(=O)O)NC(=O)[C@H](CCC(N)=O)NC(=O)[C@H](Cc2ccc(C(=O)c3ccccc3)cc2)NC(=O)[C@H](C(C)C)NC1=O` [Ac-V4(Bpa)/H9A], the Activity over compstatin is 86xmore.

Regarding `CC[C@H](C)[C@H](NC(C)=O)C(=O)N[C@H]1CSSC[C@@H](C(=O)N[C@H](C(=O)O)[C@@H](C)O)NC(=O)[C@H](CCCNC(=N)N)NC(=O)[C@H](Cc2c[nH]cn2)NC(=O)[C@H](C)NC(=O)CNC(=O)[C@H](Cc2c[nH]c3ccccc23)NC(=O)[C@H](CC(=O)O)NC(=O)[C@H](CCC(N)=O)NC(=O)[C@H](Cc2ccc(C(=O)c3ccccc3)cc2)NC(=O)[C@H](C(C)C)NC1=O` [Ac-V4(Bpa)/H9A-OH], the Activity over compstatin is recorded as 49xmore.

`CC[C@H](C)[C@H](NC(C)=O)C(=O)N[C@H]1CSSC[C@@H](C(=O)N[C@H](C(N)=O)[C@@H](C)O)NC(=O)[C@H](CCCNC(=N)N)NC(=O)[C@H](Cc2c[nH]cn2)NC(=O)[C@H](C)NC(=O)CNC(=O)[C@H](Cc2c[nH]c3ccccc23)NC(=O)[C@H](CC(=O)O)NC(=O)[C@H](CCC(N)=O)NC(=O)[C@H](Cc2c[nH]c3ccc(F)cc23)NC(=O)[C@H](C(C)C)NC1=O` [Ac-V4(5fW)/H9A]: the Activity over compstatin is 31xmore.

As to `CC[C@H](C)[C@H](NC(C)=O)C(=O)N[C@H]1CSSC[C@@H](C(=O)N[C@H](C(=O)O)[C@@H](C)O)NC(=O)[C@H](CCCNC(=N)N)NC(=O)[C@H](Cc2c[nH]cn2)NC(=O)[C@H](C)NC(=O)CNC(=O)[C@H](Cc2c[nH]c3ccccc23)NC(=O)[C@H](CC(=O)O)NC(=O)[C@H](CCC(N)=O)NC(=O)[C@H](Cc2csc3ccccc23)NC(=O)[C@H](C(C)C)NC1=O` [Ac-V4(Bta)/H9A-OH], the Activity over compstatin is on record as 65xmore.

As for `CC[C@H](C)[C@H](NC(C)=O)C(=O)N[C@H]1CSSC[C@@H](C(=O)N[C@H](C(N)=O)[C@@H](C)O)NC(=O)[C@H](CCCNC(=N)N)NC(=O)[C@H](Cc2c[nH]cn2)NC(=O)[C@H](C)NC(=O)CNC(=O)[C@H](Cc2c[nH]c3ccccc23)NC(=O)[C@H](CC(=O)O)NC(=O)[C@H](CCC(N)=O)NC(=O)[C@H](Cc2c[nH]c3ccc(C)cc23)NC(=O)[C@H](C(C)C)NC1=O` [Ac-V4(5-MeW)/H9A], the Activity over compstatin was 67xmore.

Consider `CC[C@H](C)[C@H](NC(C)=O)C(=O)N[C@H]1CSSC[C@@H](C(=O)N[C@H](C(N)=O)[C@@H](C)O)NC(=O)[C@H](CCCNC(=N)N)NC(=O)[C@H](Cc2c[nH]cn2)NC(=O)[C@H](C)NC(=O)CNC(=O)[C@H](Cc2c[nH]c3ccccc23)NC(=O)[C@H](CC(=O)O)NC(=O)[C@H](CCC(N)=O)NC(=O)[C@H](Cc2c[nH]c3ccccc23)NC(=O)[C@H](C(C)C)NC1=O` [Ac-V4W/H9A], for which the Activity over compstatin is on record as 45xmore.

Regarding `CC[C@H](C)[C@H](NC(C)=O)C(=O)N[C@H]1CSSC[C@@H](C(=O)N[C@H](C(=O)O)[C@@H](C)O)NC(=O)[C@H](CCCNC(=N)N)NC(=O)[C@H](Cc2c[nH]cn2)NC(=O)[C@H](C)NC(=O)CNC(=O)[C@H](Cc2c[nH]c3ccccc23)NC(=O)[C@H](CC(=O)O)NC(=O)[C@H](CCC(N)=O)NC(=O)[C@H](Cc2cccc3ccccc23)NC(=O)[C@H](C(C)C)NC1=O` [Ac V4(1-Nal)/H9A-OH], the Activity over compstatin is recorded as 30xmore.

On to `CC[C@H](C)[C@H](NC(C)=O)C(=O)N[C@H]1CSSC[C@@H](C(=O)N[C@H](C(N)=O)[C@@H](C)O)NC(=O)[C@H](CCCNC(=N)N)NC(=O)[C@H](Cc2c[nH]cn2)NC(=O)[C@H](C)NC(=O)CNC(=O)[C@H](Cc2c[nH]c3ccccc23)NC(=O)[C@H](CC(=O)O)NC(=O)[C@H](CCC(N)=O)NC(=O)[C@H](C2Cc3ccccc3C2)NC(=O)[C@H](C(C)C)NC1=O` [Ac-V42Igl/H9A], for which the Activity over compstatin was 39xmore.

For `CC[C@H](C)[C@H](NC(C)=O)C(=O)N[C@H]1CSSC[C@@H](C(=O)N[C@@H](C(=O)O)[C@H](C)O)NC(=O)[C@H](CCCNC(=N)N)NC(=O)[C@H](Cc2c[nH]cn2)NC(=O)[C@H](C)NC(=O)CNC(=O)[C@H](Cc2c[nH]c3ccccc23)NC(=O)[C@H](CC(=O)O)NC(=O)[C@H](CCC(N)=O)NC(=O)[C@H](Cc2c[nH]c3ccccc23)NC(=O)[C@H](C(C)C)NC1=O` [Ac-V4W/H9A/T13dT-OH], the Activity over compstatin was 55xmore.

For `CC[C@H](C)[C@H](NC(C)=O)C(=O)N[C@H]1CSSC[C@@H](C(=O)N[C@H](C(N)=O)[C@@H](C)O)NC(=O)[C@H](CCCNC(=N)N)NC(=O)[C@H](Cc2c[nH]cn2)NC(=O)[C@H](C)NC(=O)CNC(=O)[C@H](Cc2c[nH]c3ccc(F)cc23)NC(=O)[C@H](CC(=O)O)NC(=O)[C@H](CCC(N)=O)NC(=O)[C@H](Cc2c[nH]c3ccccc23)NC(=O)[C@H](C(C)C)NC1=O` [Ac-V4W/W7(5fW)/H9A], the Activity over compstatin is 121xmore.

With `CC[C@@H]1NC(=O)CNC(=O)[C@H](Cc2c[nH]c3ccccc23)NC(=O)[C@H](CC(=O)O)NC(=O)[C@H](CCC(N)=O)NC(=O)[C@H](Cc2c[nH]c3ccccc23)NC(=O)[C@H](C(C)C)NC(=O)[C@@H](NC(=O)[C@@H](NC(C)=O)[C@@H](C)CC)CSSC[C@@H](C(=O)N[C@H](C(N)=O)[C@@H](C)O)NC(=O)[C@H](CCCNC(=N)N)NC(=O)[C@H](Cc2c[nH]cn2)NC1=O` [Ac-V4W/H9(2-Abu)] (Ac-ICVWQDWG[Abu]HRCT-NH2; disulfide 2-12), the Activity over compstatin is listed as 64xmore.

Consider `CC[C@H](C)[C@H](NC(C)=O)C(=O)N[C@H]1CSSC[C@@H](C(=O)N[C@H](C(N)=O)[C@@H](C)O)NC(=O)[C@H](CCCNC(=N)N)NC(=O)[C@H](Cc2c[nH]cn2)NC(=O)[C@H](Cc2c[nH]cn2)NC(=O)CNC(=O)[C@H](Cc2c[nH]c3ccccc23)NC(=O)[C@H](CC(=O)O)NC(=O)[C@H](CCC(N)=O)NC(=O)[C@H](C(C)C)NC(=O)[C@H](C(C)C)NC1=O` [Ac-compstatin], for which the Activity over compstatin is reported as 3xmore.

`CC[C@H](C)[C@H](NC(C)=O)C(=O)N[C@H]1CSSC[C@@H](C(=O)N[C@H](C(N)=O)[C@@H](C)O)NC(=O)[C@H](CCCNC(=N)N)NC(=O)[C@H](Cc2c[nH]cn2)NC(=O)[C@H](C)NC(=O)CNC(=O)[C@H](Cc2c[nH]c3ccccc23)NC(=O)[C@H](CC(=O)O)NC(=O)[C@H](CCC(N)=O)NC(=O)[C@H](Cc2csc3ccccc23)NC(=O)[C@H](C(C)C)NC1=O` [Ac-V4(Bta)/H9A]: the Activity over compstatin is given as 64xmore.

Turning to `CC[C@H](C)[C@H](NC(C)=O)C(=O)N[C@H]1CSSC[C@@H](C(=O)N[C@H](C(=O)O)[C@@H](C)O)NC(=O)[C@H](CCCNC(=N)N)NC(=O)[C@H](Cc2c[nH]cn2)NC(=O)[C@H](C)NC(=O)CNC(=O)[C@H](Cc2c[nH]c3ccccc23)NC(=O)[C@H](CC(=O)O)NC(=O)[C@H](CCC(N)=O)NC(=O)[C@H](C2Cc3ccccc3C2)NC(=O)[C@H](C(C)C)NC1=O` [Ac-V42Igl/H9A-OH], the Activity over compstatin is 37xmore.

In the case of `CC[C@H](C)[C@H](NC(=O)CN)C(=O)N[C@H]1CSSC[C@@H](C(=O)N[C@H](C(=O)N[C@@H](CC(N)=O)C(=O)O)[C@@H](C)O)NC(=O)[C@H](CCCNC(=N)N)NC(=O)[C@H](Cc2c[nH]cn2)NC(=O)[C@H](C)NC(=O)CNC(=O)[C@H](Cc2c[nH]c3cc(F)ccc23)NC(=O)[C@H](CC(=O)O)NC(=O)[C@H](CCC(N)=O)NC(=O)[C@H](Cc2c[nH]c3cc(F)ccc23)NC(=O)[C@H](C(C)C)NC1=O` [+G/V4(6fW)/W7(6fW)H9A+N-OH], the Activity over compstatin is on record as 126xmore.

Turning to `CC[C@H](C)[C@H](NC(C)=O)C(=O)N[C@H]1CSSC[C@@H](C(=O)N[C@H](C(N)=O)[C@@H](C)O)NC(=O)[C@H](CCCNC(=N)N)NC(=O)[C@H](Cc2c[nH]cn2)NC(=O)[C@H](C)NC(=O)CNC(=O)[C@H](Cc2c[nH]c3ccccc23)NC(=O)[C@H](CC(=O)O)NC(=O)[C@H](CCC(N)=O)NC(=O)[C@H](Cc2ccc3ccccc3c2)NC(=O)[C@H](C(C)C)NC1=O` [Ac-V4(2-Nal)/H9A], the Activity over compstatin is 99xmore.

As for `CC[C@H](C)[C@H](NC(C)=O)C(=O)N[C@H]1CSSC[C@@H](C(=O)N[C@H](C(N)=O)[C@@H](C)O)NC(=O)[C@H](CCCNC(=N)N)NC(=O)[C@H](Cc2c[nH]cn2)NC(=O)[C@H](C)NC(=O)CNC(=O)[C@H](Cc2c[nH]c3ccccc23)NC(=O)[C@H](CC(=O)O)NC(=O)[C@H](CCC(N)=O)NC(=O)[C@H](Cc2ccc(O)cc2)NC(=O)[C@H](C(C)C)NC1=O` [Ac-V4Y/H9A], the Activity over compstatin is 14xmore.

In the case of `CC[C@H](C)[C@H](NC(C)=O)C(=O)N[C@H]1CSSC[C@@H](C(=O)N[C@H](C(=O)O)[C@@H](C)O)NC(=O)[C@H](CCCNC(=N)N)NC(=O)[C@H](Cc2c[nH]cn2)NC(=O)[C@H](C)NC(=O)CNC(=O)[C@H](Cc2c[nH]c3ccccc23)NC(=O)[C@H](CC(=O)O)NC(=O)[C@H](CCC(N)=O)NC(=O)[C@H](Cc2ccc3ccccc3c2)NC(=O)[C@H](C(C)C)NC1=O` [Ac V4(2-Nal)/H9A-OH], the Activity over compstatin is listed as 38xmore.

For the compound `CC[C@H](C)[C@H](NC(C)=O)C(=O)N[C@H]1CSSC[C@@H](C(=O)N[C@H](C(N)=O)[C@@H](C)O)NC(=O)[C@H](CCCNC(=N)N)NC(=O)[C@H](Cc2c[nH]cn2)NC(=O)[C@H](C)NC(=O)CNC(=O)[C@H](Cc2c[nH]c3ccc(F)cc23)NC(=O)[C@H](CC(=O)O)NC(=O)[C@H](CCC(N)=O)NC(=O)[C@H](Cc2cn(C)c3ccccc23)NC(=O)[C@H](C(C)C)NC1=O` [Ac-V4(1MeW)/W7(5fW)/H9A], the Activity over compstatin is reported as 264xmore.
